Consider three compounds from PMC12658632, “Discovery of Sesamolin as a Potential Anti-Helicobacter pylori Agent by Virtual Screening against the Essential Response Regulator HsrA with In Vitro Evaluation” (ACS Omega, 2025).

The target in one series is T1, HsrA (Helicobacter pylori, UniProt O25684).
T1 construct: gene HP_1043
Nature of the series: SPR (Biacore T200, […] model); also EMSA inhibition of HsrA-DNA binding. A general note: A gel shift assay detects complexes by their altered migration in electrophoresis.

Series [1] deals with T2, HsrA (Helicobacter pylori (strain of the recombinant protein not stated)) (UniProt O25684).
T2 sequence: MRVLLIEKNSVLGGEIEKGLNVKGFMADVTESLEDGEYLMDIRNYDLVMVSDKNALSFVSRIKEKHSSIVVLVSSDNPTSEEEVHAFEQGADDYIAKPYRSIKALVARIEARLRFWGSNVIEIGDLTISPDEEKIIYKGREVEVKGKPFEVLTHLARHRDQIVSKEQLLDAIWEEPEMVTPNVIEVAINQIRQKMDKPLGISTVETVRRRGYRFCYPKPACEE
The experiment in a line: EMSA. Particulars: EMSA binding buffer (Beyotime GS005, composition and pH not stated), 25 uL, 4 uM HsrA, 50 ng each DNA, 25 C 30 min; 5% native PAGE, 0.5x TBE.

Read-outs that look alike come from different tables or passages of the source.

T1 sequence (O25684 entry or part of it): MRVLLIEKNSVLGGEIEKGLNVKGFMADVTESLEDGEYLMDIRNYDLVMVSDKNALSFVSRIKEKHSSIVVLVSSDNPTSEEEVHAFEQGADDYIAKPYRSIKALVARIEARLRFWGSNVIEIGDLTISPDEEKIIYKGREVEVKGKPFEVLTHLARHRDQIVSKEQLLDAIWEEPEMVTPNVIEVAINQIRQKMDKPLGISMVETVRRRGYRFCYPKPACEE

One may read the Kd as the constant that tells how readily two partners part at equilibrium. For the compound `c1cc2c(cc1O[C@H]1OC[C@H]3[C@@H]1CO[C@@H]3c1ccc3c(c1)OCO3)OCO2` [compound 3, Sesamolin], the dissociation constant (Kd) on HsrA is 17.1 nM.

Take `c1c2c(cc3c1OCO3)-c1cc3ccc4c(c3c[n+]1CC2)OCO4` [compound 6, Coptisine]: the Kd at HsrA (read-out: Kd) is 400 nM.

In the case of “GCCAAAACGCCTAAAGCCATGATAACCTTTTTCATCGTTTGTCTCCTCTACTTATCAAAATGATCTTAAAATGATACAATTACAAGTTTAAGTTTTGCTTAAAAATGAAGTGAAAATGAGAGAAATAAATATGATTTTATACATTCATATCCCCTTTTGTGAAAATAAATGCGGTTATTGCGCTTTCAA (double strand) [hp1227 promoter probe]”, the binding entry in series [1] is recorded as “binds”.
